Results on three compounds are retold here after patent publication EP0391462A1, “Synergistic compositions containing ketanserin” (JANSSEN PHARMACEUTICA N.V., priority 1989, dated 1990).

For test [1], the system named is patients with moderate, uncomplicated hypertension. To be noted: difference between treated and untreated patients, mean ± standard error; end of treatment period, 1-2 hours after last dose, seated; ketanserin 40 mg b.i.d., captopril 50 mg b.i.d. As for the experimental part: The effect of a combination of the compound ketanserin (I) and an ACE inhibitor, captopril, on the lowering of blood pressure was investigated in a double-blind randomized cross-over study according to a latin square design.
Adult (≧18 years) patients with moderate, uncomplicated hypertension (105 mmHg ≦ DBP ≦ 115 mmHg at the end of a 1 month placebo wash-out period) were randomly assigned to: - placebo (1 tab q.i.d.); - placebo (1 tab b.i.d.) + ketanserin (1 tab 40 mg b.i.d.); - placebo (1 tab b.i.d.) + captopril (1 tab 50 mg b.i.d.); - ketanserin (1 tab 40 mg b.i.d.) + captopril (1 tab 50 mg b.i.d.).
At the end of each treatment period (1-2 hours after the last dose), blood pressure (by a mercury sphygmomanometer) and heart rate (by the palpatory method over a 30˝ period) of patients seated for 10′ were recorded by the same investigator during 3 measurements at 2′ intervals.

Test [2] has as its system patients with mild to moderate, uncomplicated, essential hypertension. The test is classed as in vivo. The conditions noted are these: absolute value, mean ± standard error; end of 3 month monotherapy (ketanserin 2 weeks 20 mg b.i.d. then 10 weeks 40 mg b.i.d., 9 pts; enalapril 12 weeks 10 mg b.i.d., 7 pts). As for the experimental part:
The effect of a combination of the compound ketanserin (I) and enalapril on the lowering of blood pressure was investigated in a randomized double-blind parallel group study. Elderly (≧ 50 years) patients with mild to moderate, uncomplicated, essential hypertension (95 mm Hg ≦ DBP ≦ 105 mm Hg at the end of a 3 month period on double blind monotherapy) received ketanserin (1 tab 40 mg b.i.d.) + enalapril (1 tab 10 mg b.i.d.). […] Bloodpressure (SBP, DBP) and heart rate (HR) (mean values ± standard error) are in mm Hg and b.p.m.

Take `C[C@H](CS)C(=O)N1CCC[C@H]1C(=O)O` [Captopril, captopril]: in test [1], the “difference of diastolic blood pressure (DBP)” value is reported as -8.75±1.3 mmHg and the “difference of systolic blood pressure (SBP)” value was -8.75±1.96 mmHg.

Regarding `CCOC(=O)[C@H](CCc1ccccc1)N[C@@H](C)C(=O)N1CCC[C@H]1C(=O)O` [Enalapril, enalapril], in test [2], the “DBP, End Monotherapy Phase” value is 101.42±10.07 mm Hg and the “SBP, End Monotherapy Phase” value is reported as 160.0±5.77 mm Hg.

On to `O=C(c1ccc(F)cc1)C1CCN(CCn2c(=O)[nH]c3ccccc3c2=O)CC1` [Ketanserin, 3-[2-[4-(4-fluorobenzoyl)-1-piperidinyl]ethyl]-2,4(1H,3H)-quinazolinedione], for which, in test [2], the “DBP, End Monotherapy Phase” value was found to be 102.22±5.65 mm Hg and the “SBP, End Monotherapy Phase” value was 148.88±13.64 mm Hg. For the same compound, in test [1], the “difference of diastolic blood pressure (DBP)” value is recorded as -7.92±1.3 mmHg and the “difference of systolic blood pressure (SBP)” value was -8.33±2.33 mmHg.
